Measured values published in US20260055096A1, “AZOLE PESTICIDAL COMPOUNDS” (BASF SE, priority 2022, published 2026).

Experiments:
Assay type in all cases: in vivo
[1] = system: Diamond back moth (Plutella xylostella); experiment: Example B.8: Action on diamond back moth (Plutella xylostella), egg and larval mortality on insect diet in microtiter plates; settings: for egg and larval mortality: comparative experiment vs prior art compounds; for mortality at 800 ppm: Plutella xylostella, 120 h, egg and larval mortality after 5 days, read-out: mortality in comparison with untreated controls
Description: For evaluating control of diamond back moth (Plutella xylostella) the test unit consisted of 96-well-microtiter plates containing an insect diet and 15-25 P. xylostella eggs. The compounds or mixtures were formulated using a solution containing 75% water and 25% DMSO. Different concentrations of formulated compounds or mixtures were sprayed onto the insect diet at 5 μl, using a custom-built micro atomizer, at two replications. For experimental mixtures in these tests identical volumes of both mixing partners at the desired concentrations respectively, were mixed together. After application, microtiter plates were incubated at 28±1° C., 80±5% RH for 5 days. Egg and larval mortality was then visually assessed.

[2] = system: Southern armyworm (Spodoptera eridania), 2nd instar larvae; experiment: Example B.7: Action on southern armyworm (Spodoptera eridania), 2nd instar larvae on sprayed lima bean plants; settings: 96 h, 4 days after treatment, read-out: mortality in comparison with untreated controls
Description: The active compounds were formulated by a Tecan liquid handler in 100% cyclohexanone as a 10,000-ppm solution supplied in tubes. The 10,000-ppm solution was serially diluted in 100% cyclohexanone to make interim solutions. These served as stock solutions for which final dilutions were made by the Tecan in 50% acetone:50% water (v/v) into 10 or 20 ml glass vials. A nonionic surfactant (Kinetic®) was included in the solution at a volume of 0.01% (v/v). The vials were then inserted into an automated electrostatic sprayer equipped with an atomizing nozzle for application to plants/insects.
Lima bean plants (variety Sieva) were grown 2 plants to a pot and selected for treatment at the 1st true leaf stage. Test solutions were sprayed onto the foliage by an automated electrostatic plant sprayer equipped with an atomizing spray nozzle. The plants were dried in the sprayer fume hood and then removed from the sprayer. Each pot was placed into perforated plastic bags with a zip closure. About 10 to 11 armyworm larvae were placed into the bag and the bags zipped closed. Test plants were maintained in a growth room at about 25° C. and about 20-40% relative humidity for 4 days, avoiding direct exposure to fluorescent light (24-hour photoperiod) to prevent trapping of heat inside the bags. Mortality and reduced feeding were assessed 4 days after treatment, compared to untreated control plants.

[3] = system: boll weevil (Anthonomus grandis); experiment: Example B.3: Action on boll weevil (Anthonomus grandis), egg and larval mortality on insect diet; settings: 120 h, egg and larval mortality after 5 days, read-out: mortality in comparison with untreated controls
Description: For evaluating control of boll weevil (Anthonomus grandis) the test unit consisted of 96-well-microtiter plates containing an insect diet and 5-10 A. grandis eggs.
The compounds were formulated using a solution containing 75% (v/v) water and 25% (v/v) DMSO. Different concentrations of formulated compounds were sprayed onto the insect diet at […], using a custom-built micro atomizer, at two replications.
After application, microtiter plates were incubated at about 25±1C and about 75±5% relative humidity for 5 days. Egg and larval mortality were then visually assessed.

[4] = system: Orchid thrips (Dichromothrips corbetti); experiment: Example B.2: Action on orchid thrips (Dichromothrips corbetti), floral-immersion technique; settings: 72 hours after treatment, read-out: mortality in comparison with untreated controls
Description: Dichromothrips corbetti adults used for bioassay were obtained from a colony maintained continuously under laboratory conditions. For testing purposes, the test compound is diluted in a 1:1 mixture of acetone:water (vol:vol), plus Kinetic® HV at a rate of 0.01% v/v.
Thrips potency of each compound was evaluated by using a floral-immersion technique. All petals of individual, intact orchid flowers were dipped into treatment solution and allowed to dryin Petri dishes. Treated petals were placed into individual re-sealable plastic along with about 20 adult thrips. All test arenas were held under continuous light and a temperature of about 28° C. for duration of the assay. After 3 days, the numbers of live thrips were counted on each petal. The percent mortality was recorded 72 hours after treatment.

[5] = system: Diamond back moth (Plutella xylostella); experiment: Example B.6: Action on diamond back moth (Plutella xylostella), cabbage leaf dip, 3rd instar larvae; settings: foliar, 72 hours after treatment, read-out: mortality in comparison with untreated controls
Description: The active compound is dissolved at the desired concentration in a mixture of 1:1 (v/v) distilled water: acetone. Surfactant (Kinetic® HV) is added at a rate of 0.01% (v/v). The test solution is prepared at the day of use.
Leaves of cabbage were dipped in test solution and air-dried. Treated leaves were placed in petri dishes lined with moist filter paper and inoculated with ten 3rd instar larvae. Mortality was recorded 72 hours after treatment. Feeding damages were also recorded using a scale of 0-100%.

[6] = system: yellow fever mosquito (Aedes aegypti); experiment: whole plant or invertebrate; settings: 48 h, larval mortality after 2 days, read-out: mortality in comparison with untreated controls
Description: For evaluating control of yellow fever mosquito (Aedes aegypti) the test unit consisted of 96-well-microtiter plates containing 200 μl of tap water per well and 5-15 freshly hatched A. aegypti larvae.
The active compounds or mixtures were formulated using a solution containing 75% (v/v) water and 25% (v/v) DMSO. Different concentrations of formulated compounds or mixtures were sprayed onto the insect diet at 2.5 μl, using a custom-built micro atomizer, at two replications.
For experimental mixtures in these tests identical volumes of both mixing partners at the desired concentrations respectively, were mixed together.
After application, microtiter plates were incubated at 28 #1° C., 80 #5% RH for 2 days. Larval mortality was then visually assessed.

[7] = system: tobacco budworm (Heliothis virescens); experiment: Example B.5: Action on tobacco budworm (Heliothis virescens), egg and larval mortality on insect diet; settings: 120 h, egg and larval mortality after 5 days, read-out: mortality in comparison with untreated controls
Description: For evaluating control of tobacco budworm (Heliothis virescens) the test unit consisted of 96-well-microtiter plates containing an insect diet and 15-25 H. virescens eggs.
The compounds were formulated using a solution containing 75% v/v water and 25% v/v DMSO. Different concentrations of formulated compounds were sprayed onto the insect diet at 10 μl, using a custom-built micro atomizer, at two replications.
After application, microtiter plates were incubated at about 28±1C and about 80±5% relative humidity for 5 days. Egg and larval mortality were then visually assessed.

**Q.** CC(C)c1ccccc1N1C(=O)CS/C1=N\C(=O)Nc1ccc(-c2nc(Nc3ccc(OC(F)(F)F)cc3)n(C)n2)cc1 [EP3974414 I-001, reference compound] was tested. Which “egg and larval mortality” value ([1]; 25 ppm) did it give?
**A.** 0

**Q.** Which “egg and larval mortality” value ([1]; 25 ppm) does the source give for CC(C)c1ccccc1N1C(=O)CS/C1=N\C(=O)Nc1ccc(-c2nc(Nc3cccc(OC(F)(F)F)c3)n(C)n2)cc1 [EP3974414 I-006, reference compound] here?
**A.** 38

**Q.** And the “egg and larval mortality” value ([1]; 100 ppm)?
**A.** 0

**Q.** Which results are given for Cc1ccc(C(C)C)c(N2C(=O)CS/C2=N\C(=O)Nc2ccc(-c3nn(C)c(NC(=O)c4ccc(C(F)(F)F)cc4)c3C)cc2)c1 [Example C-1, N-[5-[4-[[(Z)-[3-(2-isopropyl-5-methyl-phenyl)-4-oxo-thiazolidin-2-ylidene]carbamoyl]amino]phenyl]-2,4-dimethyl-pyrazol-3-yl]-4-(trifluoromethyl)benzamide]?
**A.** mortality at 300 ppm [2]: ≥ 75%; mortality at 800 ppm [3]: ≥ 75%; mortality at 300 ppm [4]: ≥ 75%; mortality at 300 ppm [5]: ≥ 75%; mortality at 800 ppm [6]: ≥ 50%; mortality at 800 ppm [7]: ≥ 75%

**Q.** What does the source list for CC(=O)OCS/C(=N\C(=O)Nc1ccc(-c2nn(C)c(NC(=O)c3ccc(C(F)(F)F)cc3)c2C)cc1)Nc1cc(C)ccc1C(C)C [Example C-2, [(Z)-N′-[[4-[1,4-dimethyl-5-[[4-(trifluoromethyl)benzoyl]amino]pyrazol-3-yl]phenyl]carbamoyl]-N-(2-isopropyl-5-methyl-phenyl)carbamimidoyl]sulfanylmethyl acetate]?
**A.** mortality at 300 ppm [2]: ≥ 75%; mortality at 800 ppm [3]: ≥ 75%; mortality at 300 ppm [4]: ≥ 75%; mortality at 300 ppm [5]: ≥ 75%; mortality at 800 ppm [6]: ≥ 50%; mortality at 800 ppm [7]: ≥ 75%

**Q.** Which results are given for Cc1ccc(C(C)C)c(NC(=S)NC(=O)Nc2ccc(-c3nn(C)c(NC(=O)c4ccc(C(F)(F)F)cc4)c3C)cc2)c1 [Example C-3, N-[5-[4-[(2-isopropyl-5-methyl-phenyl)carbamothioylcarbamoylamino]phenyl]-2,4-dimethyl-pyrazol-3-yl]-4-(trifluoromethyl)benzamide]?
**A.** mortality at 300 ppm [2]: ≥ 75%; mortality at 800 ppm [3]: ≥ 75%; mortality at 300 ppm [4]: ≥ 75%; mortality at 300 ppm [5]: ≥ 75%; mortality at 800 ppm [6]: ≥ 50%; mortality at 800 ppm [7]: ≥ 75%

**Q.** What does the source list for Cc1ccc(C(C)C)c(N2C(=O)CS/C2=N\C(=O)Nc2ccc(-c3nn(C)c(N(C)C(=O)c4ccc(C(F)(F)F)cc4)c3C)cc2)c1 [Example C-4, N-[5-[4-[[(Z)-[3-(2-isopropyl-5-methyl-phenyl)-4-oxo-thiazolidin-2-ylidene]carbamoyl]amino]phenyl]-2,4-dimethyl-pyrazol-3-yl]-N-methyl-4-(trifluoromethyl)benzamide]?
**A.** mortality at 300 ppm [2]: ≥ 75%; mortality at 800 ppm [3]: ≥ 75%; mortality at 300 ppm [4]: ≥ 75%; mortality at 300 ppm [5]: ≥ 75%; mortality at 800 ppm [6]: ≥ 50%; mortality at 800 ppm [7]: ≥ 75%

**Q.** What does the source list for Cc1ccc(C(C)C)c(N2C(=O)CS/C2=N\C(=O)Nc2ccc(-c3nc(NC(=O)c4ccc(OC(F)(F)F)cc4)n(C)n3)cc2)c1 [Example C-5, N-[5-[4-[[(Z)-[3-(2-isopropyl-5-methyl-phenyl)-4-oxo-thiazolidin-2-ylidene]carbamoyl]amino]phenyl]-2-methyl-1,2,4-triazol-3-yl]-4-(trifluoromethoxy)benzamide]?
**A.** mortality at 300 ppm [2]: ≥ 75%; mortality at 800 ppm [3]: ≥ 75%; mortality at 300 ppm [4]: ≥ 75%; mortality at 300 ppm [5]: ≥ 75%; mortality at 800 ppm [7]: ≥ 75%

**Q.** With Cc1ccc(C(C)C)c(N2C(=O)CS/C2=N\C(=O)Nc2ccc(-c3nn(C)c(NC(=O)c4ccc(OC(F)(F)F)cc4)c3C#N)cc2)c1 [Example C-7, N-[4-cyano-5-[4-[[(Z)-[3-(2-isopropyl-5-methyl-phenyl)-4-oxo-thiazolidin-2-ylidene]carbamoyl]amino]phenyl]-2-methyl-pyrazol-3-yl]-4-(trifluoromethoxy)benzamide] as the compound, how does the mortality at 300 ppm [2] read?
**A.** ≥ 75%

**Q.** What about the mortality at 800 ppm [3] of the same compound?
**A.** ≥ 75%

**Q.** And the mortality at 300 ppm [4]?
**A.** ≥ 75%

**Q.** And the mortality at 300 ppm [5]?
**A.** ≥ 75%

**Q.** What about the mortality at 800 ppm [6] of the same compound?
**A.** ≥ 50%

**Q.** And the mortality at 800 ppm [7]?
**A.** ≥ 75%

**Q.** For Cc1ccc(C(C)C)c(N2C(=O)CS/C2=N\C(=O)Nc2ccc(-c3nn(C)c(NC(=O)c4ccc(OC(F)(F)F)cc4)c3C)cc2Cl)c1 [Example C-8, N-[5-[3-chloro-4-[[(Z)-[3-(2-isopropyl-5-methyl-phenyl)-4-oxo-thiazolidin-2-ylidene]carbamoyl]amino]phenyl]-2,4-dimethyl-pyrazol-3-yl]-4-(trifluoromethoxy)benzamide], which mortality at 300 ppm [2] is on record?
**A.** ≥ 75%

**Q.** And the mortality at 800 ppm [3]?
**A.** ≥ 75%

**Q.** And the mortality at 300 ppm [4]?
**A.** ≥ 75%

**Q.** And the mortality at 300 ppm [5]?
**A.** ≥ 75%

**Q.** What about the mortality at 800 ppm [6] of the same compound?
**A.** ≥ 50%

**Q.** And the mortality at 800 ppm [7]?
**A.** ≥ 75%

**Q.** With Cc1ccc(C(C)C)c(N2C(=O)CS/C2=N\C(=O)N(C)c2ccc(-c3nn(C)c(NC(=O)c4ccc(OC(F)(F)F)cc4)c3C)cc2)c1 [Example C-112, N-[5-[4-[[(Z)-[3-(2-isopropyl-5-methyl-phenyl)-4-oxo-thiazolidin-2-ylidene]carbamoyl]-methyl-amino]phenyl]-2,4-dimethyl-pyrazol-3-yl]-4-(trifluoromethoxy)benzamide] as the compound, how does the mortality at 800 ppm [3] read?
**A.** ≥ 75%

**Q.** And the mortality at 800 ppm [1]?
**A.** ≥ 75%

**Q.** What about the mortality at 800 ppm [6] of the same compound?
**A.** ≥ 50%

**Q.** What about the mortality at 800 ppm [7] of the same compound?
**A.** ≥ 75%

**Q.** For CC(C)c1ccccc1N1C(=O)CS/C1=N\C(=O)Nc1ccc(-c2nc(NC(=O)c3ccc(OC(F)(F)F)cc3)n(C)n2)cc1 [Example C-119], which mortality at 300 ppm [2] is on record?
**A.** ≥ 75%

**Q.** What about the mortality at 800 ppm [3] of the same compound?
**A.** ≥ 75%

**Q.** And the “egg and larval mortality” value ([1]; 25 ppm)?
**A.** 75

**Q.** What about the mortality at 800 ppm [1] of the same compound?
**A.** ≥ 75%

**Q.** Which mortality at 300 ppm [2] does the source give for CC(C)c1ccccc1N1C(=O)CS/C1=N\C(=O)Nc1ccc(-c2nc(NC(=O)c3cccc(OC(F)(F)F)c3)n(C)n2)cc1 [Example C-126] here?
**A.** ≥ 75%

**Q.** And the mortality at 800 ppm [3]?
**A.** ≥ 75%

**Q.** What about the “egg and larval mortality” value ([1]; 25 ppm) of the same compound?
**A.** 75

**Q.** And the “egg and larval mortality” value ([1]; 100 ppm)?
**A.** 100

**Q.** What about the mortality at 800 ppm [1] of the same compound?
**A.** ≥ 75%

**Q.** What about the mortality at 800 ppm [6] of the same compound?
**A.** ≥ 50%

**Q.** And the mortality at 800 ppm [7]?
**A.** ≥ 75%
